Patent US20240409536A1, “COMPOUNDS AND METHODS FOR MODULATING SPLICING” (REMIX THERAPEUTICS INC., priority 2021, published 2024)
Read-outs that look alike come from different tables or passages of the source.

What was measured:
[1] = system: SMN2 mRNA; assay: Gene panel canonical junction qPCR assay, SMN2 CJ mRNA decrease; assay type: cell-based, human; conditions: decrease in CJ mRNA levels, read-out: SMN2 IC50
Description: (§1) Compounds described herein were used to modulate RNA transcript abundance in cells. The expression of a target mRNA was measured by detecting the formation of an exon-exon junction in the canonical transcript (CJ). A compound mediated exon-inclusion event was detected by observing an increase in formation of a new junction with an alternative exon (AJ). Real-time qPCR assays were used to detect these splicing switches and interrogate the potency of various compounds towards different target genes. A high-throughput real time quantitative PCR (RT-qPCR) assay was developed to measure these two isoforms of the mRNA (CJ and AJ) for exemplary genes, such as HTT, SMN2, and MYB, together with a control housekeeping gene, GAPDH or GUSB or PPIA, used for normalization. Briefly, the A673 or K562 cell line was treated with various compounds described herein (e.g., compounds of Formula (I), (I), or (III)). After treatment, the levels of the HTT, MYB, or SMN2 mRNA targets were determined from each sample of cell lysate by cDNA synthesis followed by qPCR.
(§2) The data analysis was performed by first determining the ΔCt vs the housekeeper gene. This ΔCt was then normalized against the DMSO control (ΔΔCt) and converted to RQ (relative quantification) using the 2^(−ΔΔCt) equation. The RQ were then converted to a percentage response by arbitrarily setting an assay window of 3.5 and 4.0 ΔCt for HTT-CJ and MYB-CJ respectively and an assay window of 9 and 3 ΔCt for HTT-AJ and MYB-AJ in 96 well format (50,000 K562 cells/well and 15,000 A673 cells per well) and an assay window of 3 and 4 ΔCt for HTT-CJ and MYB-CJ respectively and an assay window of 5 and 3 ΔCt for HTT-AJ and MYB-AJ respectively in 384 well format (8,000 K562 cells/well example). […] The percentage response was then fitted to the 4 parametric logistic equation to evaluate the concentration dependence of compound treatment. The increase in AJ mRNA is reported as AC50 (compound concentration having […] in AJ increase) while the decrease in CJ mRNA levels is reported as IC50 (compound concentration having 50) response in CJ decrease).
(§3) Additional studies were carried out for a larger panel of genes using the protocol provided above. The junction between flanking upstream and downstream exons was used to design canonical junction qPCR assays. At least one of the forward primer, reverse primer or the CY5-labeled 5′ nuclease probe (with 3′ quencher such as ZEN/Iowa Black FQ) was designed to overlap with the exon junction to capture the CJ mRNA transcript. BLAST was used to confirm the specificity of the probeset and parameters such as melting temperature, GC content, amplicon size, and primer dimer formation are considered during their design. Data for the decrease in CJ mRNA levels for four exemplary genes (HTT, SMN2, MYB, and Target C) analyzed in this panel are reported as IC50 (compound concentration having […] in CJ decrease).
(§4) A summary of the results from the panel is illustrated in Tables 5A and 51B, wherein “A” represents an IC50 of less than 100 nM; “B” represents an IC50 of between 100 nM and 1 μM; and “C” represents an IC50 of between 1 μM and 10 μM; and “D” represents an IC50 of greater than 10 μM.

[2] = system: MYB mRNA; assay: Gene panel canonical junction qPCR assay, MYB CJ mRNA decrease; assay type: cell-based, human; conditions: decrease in CJ mRNA levels, read-out: MYB IC50
Description: as §1, §2, §3, §4

[3] = system: HTT mRNA; assay: Gene panel canonical junction qPCR assay, HTT CJ mRNA decrease; assay type: cell-based, human; conditions: Homo sapiens, decrease in CJ mRNA levels, read-out: HTT IC50
Description: as §1, §2, §3, §4

[4] = system: Target C mRNA; assay: Gene panel canonical junction qPCR assay, Target C CJ mRNA decrease; assay type: cell-based; conditions: Homo sapiens, decrease in CJ mRNA levels, read-out: Target C IC50
Description: as §1, §2, §3, §4

Row | Structure (SMILES) | IC50 ([1]; Homo sapiens) [nM] | IC50 ([2]; Homo sapiens) [nM] | IC50 [3] [nM] | IC50 [4] [nM] | IC50 [1] [nM] | IC50 [2] [nM]
1 | Cc1cn2nc(NC(=O)c3sc([C@H]4CCN[C@@H](C)C4)cc3F)cc(C)c2n1 [Compound 577] | 1000 to 10000 | 100 to 1000 | 100 to 1000 | 100 to 1000 |  | 
2 | Cc1cn2nc(NC(=O)c3sc([C@H]4CCN[C@H](C)C4)cc3F)cc(C)c2n1 [Compound 578] | 1000 to 10000 | < 100 | 100 to 1000 | 1000 to 10000 |  | 
3 | Cc1cn2nc(NC(=O)c3sc([C@@H]4CCN[C@@H](C)C4)cc3F)cc(C)c2n1 [Compound 579] | 100 to 1000 | < 100 | < 100 | 100 to 1000 |  | 
4 | Cc1cn2cc(-c3cc(F)c(C(=O)N[C@H]4CCN[C@H](C)C4)s3)nc2c(C)n1 [Compound 583] | > 10000 | 1000 to 10000 | > 10000 | > 10000 |  | 
5 | Cc1cn2cc(NC(=O)c3sc([C@@H]4CCN[C@H](C)C4)cc3F)cc(F)c2n1 [Compound 589] | 1000 to 10000 | < 100 | 100 to 1000 | 1000 to 10000 |  | 
6 | Cc1cn2cc(NC(=O)c3sc([C@@H]4CCN[C@@H](C)C4)cc3F)cc(F)c2n1 [Compound 591] | 1000 to 10000 | < 100 | 100 to 1000 | 100 to 1000 |  | 
7 | Cc1cn2cc(NC(=O)c3sc([C@H]4CCN[C@H](C)C4)cc3F)cc(F)c2n1 [Compound 592] | 1000 to 10000 | 100 to 1000 | 100 to 1000 | 1000 to 10000 |  | 
8 | Cc1cn2cc(NC(=O)c3sc(N4CCN(C)C(C)C4)cc3F)cc(F)c2n1 (stereo not drawn) [Compound 602] | > 10000 | 100 to 1000 | > 10000 | > 10000 |  | 
9 | Cc1cn2cc(NC(=O)c3sc(N4CCNC(C)(C)C4)cc3F)cc(F)c2n1 [Compound 604] | > 10000 | 1000 to 10000 | > 10000 | > 10000 |  | 
10 | Cc1cn2cc(NC(=O)c3sc(N4CC(C)(C)NC(C)(C)C4)cc3F)cc(F)c2n1 [Compound 606] | > 10000 | 100 to 1000 | 1000 to 10000 | 1000 to 10000 |  | 
11 | Cc1cn2cc(NC(=O)c3sc(N4CC5(CNC5)C4)cc3F)cc(F)c2n1 [Compound 607] | > 10000 | 1000 to 10000 | > 10000 | 1000 to 10000 |  | 
12 | Cc1cn2cc(NC(=O)c3sc(N4CC5(CN(C)C5)C4)cc3F)cc(F)c2n1 [Compound 608] | > 10000 | 1000 to 10000 | > 10000 | > 10000 |  | 
13 | Cc1cn2cc(NC(=O)c3sc(N4CCC(N5CCCC5)C4)cc3F)cc(F)c2n1 (stereo not drawn) [Compound 609] | 1000 to 10000 | 100 to 1000 | 1000 to 10000 | 1000 to 10000 |  | 
14 | Cc1cn2cc(NC(=O)c3sc(N4CCC(N(C)C)C4)cc3F)cc(F)c2n1 (stereo not drawn) [Compound 611] | > 10000 | 100 to 1000 | > 10000 | 1000 to 10000 |  | 
15 | Cc1cn2cc(NC(=O)c3sc(N4CCN5CCCC5C4)cc3F)cc(F)c2n1 (stereo not drawn) [Compound 612] | > 10000 | 1000 to 10000 | > 10000 | 1000 to 10000 |  | 
16 | Cc1cn2cc(NC(=O)c3sc(N4CCC(N(C)C)CC4)cc3F)cc(F)c2n1 [Compound 613] | > 10000 | 100 to 1000 | 1000 to 10000 | > 10000 |  | 
17 | Cc1cn2cc(NC(=O)c3sc(N4CCC(NC(C)(C)C)CC4)cc3F)cc(F)c2n1 [Compound 614] | > 10000 | 1000 to 10000 | > 10000 | > 10000 |  | 
18 | Cc1cn2cc(NC(=O)c3sc(C4CCNCC4)cc3F)cc(F)c2n1 [Compound 617] |  |  | 1000 to 10000 | 1000 to 10000 | 1000 to 10000 | 1000 to 10000
19 | Cc1cn2cc(NC(=O)c3sc(C4CCN(C)CC4)cc3F)cc(F)c2n1 [Compound 618] | 1000 to 10000 | 1000 to 10000 | > 10000 | 1000 to 10000 |  | 
20 | CCN1CCC(c2cc(F)c(C(=O)Nc3cc(F)c4nc(C)cn4c3)s2)CC1 [Compound 619] | 100 to 1000 | < 100 | 100 to 1000 | 100 to 1000 |  | 
21 | Cc1cn2cc(NC(=O)c3sc(C4CC(C)(C)NC(C)(C)C4)cc3F)cc(F)c2n1 [Compound 621] | 1000 to 10000 | 100 to 1000 | 100 to 1000 | 1000 to 10000 |  | 
22 | Cc1cn2cc(NC(=O)c3sc(N(C)C4CC(C)(C)NC(C)(C)C4)cc3F)cc(F)c2n1 [Compound 622] | 1000 to 10000 | < 100 | 100 to 1000 | 100 to 1000 |  | 
23 | CC1CC(c2cc(F)c(C(=O)Nc3ccc4cn(C)nc4c3)s2)CCN1 (stereo not drawn) [Compound 624] | > 10000 | 100 to 1000 | > 10000 | 1000 to 10000 |  | 
24 | CC1CC(c2cc(F)c(C(=O)Nc3cc(F)c4cn(C)nc4c3)s2)CCN1 (stereo not drawn) [Compound 625] | 1000 to 10000 | 1000 to 10000 | 1000 to 10000 | 1000 to 10000 |  | 
25 | Cc1nc2c(F)cc(NC(=O)c3sc(N4CCNC(C)C4)cc3F)cc2o1 (stereo not drawn) [Compound 637] | > 10000 | > 10000 | > 10000 | > 10000 |  | 
26 | Cc1cn2cc(NC(=O)c3sc(N4CCNC(C)C4)cc3F)c(C)cc2n1 (stereo not drawn) [Compound 639] | 100 to 1000 | 100 to 1000 | 1000 to 10000 | 1000 to 10000 |  | 
27 | Cc1cn2cc(NC(=O)c3sc(N4CCNC(C)C4)cc3F)ncc2n1 (stereo not drawn) [Compound 640] | 100 to 1000 | 100 to 1000 | > 10000 | 1000 to 10000 |  | 
28 | Cc1cn2cc(NC(=O)c3sc(N4CCNC(C)C4)cc3F)nc2c(C)n1 (stereo not drawn) [Compound 641] | > 10000 | 1000 to 10000 | > 10000 | > 10000 |  | 
29 | Cc1cn2nc(NC(=O)c3sc(N4CCNC(C)C4)cc3F)nc2c(C)n1 (stereo not drawn) [Compound 642] | > 10000 | 100 to 1000 | > 10000 | > 10000 |  | 
30 | Cc1cn2nc(NC(=O)c3sc(N4CCNC(C)C4)cc3F)cc2c(C)n1 (stereo not drawn) [Compound 643] | > 10000 | > 10000 | > 10000 | > 10000 |  | 
